The target in this assay is T1, GPR40 of human origin (Homo sapiens, UniProt O14842).
T1 construct: expressed in transfected cells
T1 sequence (O14842 whole entry): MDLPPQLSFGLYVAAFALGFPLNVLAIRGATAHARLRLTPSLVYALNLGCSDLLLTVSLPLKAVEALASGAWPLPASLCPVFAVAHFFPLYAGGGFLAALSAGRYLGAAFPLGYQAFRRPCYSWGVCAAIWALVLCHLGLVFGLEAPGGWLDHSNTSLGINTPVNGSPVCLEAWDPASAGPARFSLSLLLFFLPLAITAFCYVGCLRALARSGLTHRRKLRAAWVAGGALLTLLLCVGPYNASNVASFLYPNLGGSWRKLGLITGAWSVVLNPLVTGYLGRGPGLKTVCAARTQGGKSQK
As to the kind of experiment: Agonist action on GPR40 of human origin (intracellular Ca2+ change). The format is cell-based. To be noted: CHO cell strain stably expressing GPR40 of human origin; change in Ca2+ concentration, fluorescent calcium indicator. As for the experimental part:
Pharmacological Test Example 1: Agonist Action on GPR40 of Human Origin
A CHO cell strain stably expressing GPR40 of human origin was used to determine the agonist action of a subject compound. This cell strain was seeded in a clear bottom 96 well plate at 4×10^4 cells/100 pt/well. The cell strain iswas cultured in a CO2 incubator overnight using a Ham's F-12 medium containing a 10% fetal bovine serum, 100 U/mL penicillin, 0.1 mg/mL streptomycin, and 400 μg/mL Geneticin. Calcium 4 Assay Kit (Molecular Devices) was used as a fluorescent calcium indicator. One mL of 77 mg/mL probenecid (Invitrogen) was added to 100 mL of a calcium indicator solution to prepare a solution (loading solution) mixed with a 20 mM HEPES-containing Hanks' balanced salt solution (HBSS) in equal proportions. To the cells from which the culture solution is removed, 200 μl of the loading solution was added, and the cells were cultured in a CO2 incubator for 1 hour. The subject compound was diluted with a 20 mM HEPES-containing HBSS and was added to the cells by 50 μL, and the change in the Ca^2+ concentration was measured with an intracellular ion analyzer. The EC50 value of the subject compound was calculated using the dose-response curve of fluorescence intensity variation.
As for `Cc1cc(OCc2ccccc2)ccc1-c1cccc2c1CC[C@H]2Oc1ccc(-c2cc(O)n[s+]2[O-])cc1` (stereo partly drawn) [Example 47, 5-(4-(((R)-4-(4-benzyloxy-2-methylphenyl)-2,3-dihydro-1H-inden-1-yl)oxy)phenyl)-3-hydroxyisothiazole 1-oxide], the concentration for a half-maximal effect (EC50) is < 300 nM.

Take `COc1ccc(-c2cccc3c2CC[C@H]3Oc2ccc(-c3cc(O)n[s+]3[O-])cc2)c(Cl)c1` (stereo partly drawn) [Example 48, 5-(4-(((R)-4-(2-chloro-4-methoxyphenyl)-2,3-dihydro-1H-inden-1-yl)oxy)phenyl)-3-hydroxyisothiazole 1-oxide]: the EC50 was < 300 nM. In the case of `COc1ccc(-c2cccc3c2CC[C@H]3Oc2ccc(-c3cc(O)n[s+]3[O-])cc2)c(OC)c1` (stereo partly drawn) [Example 49, 5-(4-(((R)-4-(2,4-dimethoxyphenyl)-2,3-dihydro-1H-inden-1-yl)oxy)phenyl)-3-hydroxyisothiazole 1-oxide] it was < 300 nM. Consider `Cc1ccc(-c2cccc3c2CC[C@H]3Oc2ccc(-c3cc(O)n[s+]3[O-])cc2)c2ccccc12` (stereo partly drawn) [Example 50, 5-(4-(((R)-4-(4-methylnaphthalen-1-yl)-2,3-dihydro-1H-inden-1-yl)oxy)phenyl)-3-hydroxyisothiazole 1-oxide], for which the concentration giving a half-maximal response (EC50) lay in the range of 300 to 3000 nM. Take `COc1cc(F)ccc1-c1cccc2c1CC[C@H]2Oc1ccc(-c2cc(O)n[s+]2[O-])cc1` (stereo partly drawn) [Example 51, 5-(4-(((R)-4-(4-fluoro-2-methoxyphenyl)-2,3-dihydro-1H-inden-1-yl)oxy)phenyl)-3-hydroxyisothiazole 1-oxide]: the EC50 is < 300 nM. For `COc1ccc(Cl)c(-c2cccc3c2CC[C@H]3Oc2ccc(-c3cc(O)n[s+]3[O-])cc2)c1` (stereo partly drawn) [Example 52, 5-(4-(((R)-4-(2-chloro-5-methoxyphenyl)-2,3-dihydro-1H-inden-1-yl)oxy)phenyl)-3-hydroxyisothiazole 1-oxide] the value was < 300 nM; for `COc1ccc(F)c(-c2cccc3c2CC[C@H]3Oc2ccc(-c3cc(O)n[s+]3[O-])cc2)c1` (stereo partly drawn) [Example 53, 5-(4-(((R)-4-(2-fluoro-5-methoxyphenyl)-2,3-dihydro-1H-inden-1-yl)oxy)phenyl)-3-hydroxyisothiazole 1-oxide], < 300 nM; for `COc1ccc(OC)c(-c2cccc3c2CC[C@H]3Oc2ccc(-c3cc(O)n[s+]3[O-])cc2)c1` (stereo partly drawn) [Example 54, 5-(4-(((R)-4-(2,5-dimethoxyphenyl)-2,3-dihydro-1H-inden-1-yl)oxy)phenyl)-3-hydroxyisothiazole 1-oxide], < 300 nM. For `COc1ccc(Cl)cc1-c1cccc2c1CC[C@H]2Oc1ccc(-c2cc(O)n[s+]2[O-])cc1` (stereo partly drawn) [Example 55, 5-(4-(((R)-4-(5-chloro-2-methoxyphenyl)-2,3-dihydro-1H-inden-1-yl)oxy)phenyl)-3-hydroxyisothiazole 1-oxide] the value was 300 to 3000 nM; for `COc1ccc(F)cc1-c1cccc2c1CC[C@H]2Oc1ccc(-c2cc(O)n[s+]2[O-])cc1` (stereo partly drawn) [Example 56, 5-(4-(((R)-4-(5-fluoro-2-methoxyphenyl)-2,3-dihydro-1H-inden-1-yl)oxy)phenyl)-3-hydroxyisothiazole 1-oxide], < 300 nM. For `[O-][s+]1nc(O)cc1-c1ccc(O[C@@H]2CCc3c(-c4ccc(OCc5ccccc5)c(F)c4)cccc32)cc1` (stereo partly drawn) [Example 57, 5-(4-(((R)-4-(4-benzyloxy-3-fluorophenyl)-2,3-dihydro-1H-inden-1-yl)oxy)phenyl)-3-hydroxyisothiazole 1-oxide] the value was 300 to 3000 nM. For `CCOc1ccc(Cl)cc1-c1cccc2c1CC[C@H]2Oc1ccc(-c2cc(O)n[s+]2[O-])cc1` (stereo partly drawn) [Example 58, 5-(4-(((R)-4-(5-chloro-2-ethoxyphenyl)-2,3-dihydro-1H-inden-1-yl)oxy)phenyl)-3-hydroxyisothiazole 1-oxide], the 50% effective concentration (EC50) was < 300 nM. Turning to `COc1cccc(-c2cccc3c2CC[C@H]3Oc2ccc(-c3cc(O)n[s+]3[O-])cc2)c1F` (stereo partly drawn) [Example 59, 5-(4-(((R)-4-(2-fluoro-3-methoxyphenyl)-2,3-dihydro-1H-inden-1-yl)oxy)phenyl)-3-hydroxyisothiazole 1-oxide], the half-maximal effective concentration (EC50) was < 300 nM.

For `CCOc1ccc(-c2cccc3c2CC[C@H]3Oc2ccc(-c3cc(O)n[s+]3[O-])cc2)cc1Cl` (stereo partly drawn) [Example 60, 5-(4-(((R)-4-(3-chloro-4-ethoxyphenyl)-2,3-dihydro-1H-inden-1-yl)oxy)phenyl)-3-hydroxyisothiazole 1-oxide], the concentration for a half-maximal effect (EC50) is < 300 nM. Consider `[O-][s+]1nc(O)cc1-c1ccc(O[C@@H]2CCc3c(-c4ccc(F)cc4OCc4ccccc4)cccc32)cc1` (stereo partly drawn) [Example 61, 5-(4-(((R)-4-(2-benzyloxy-4-fluorophenyl)-2,3-dihydro-1H-inden-1-yl)oxy)phenyl)-3-hydroxyisothiazole 1-oxide], for which the EC50 was 300 to 3000 nM. In the case of `[O-][s+]1nc(O)cc1-c1ccc(O[C@@H]2CCc3c(-c4cc(F)ccc4OCc4ccccc4)cccc32)cc1` (stereo partly drawn) [Example 62, 5-(4-(((R)-4-(2-benzyloxy-5-fluorophenyl)-2,3-dihydro-1H-inden-1-yl)oxy)phenyl)-3-hydroxyisothiazole 1-oxide] it was 300 to 3000 nM; in that of `[O-][s+]1nc(O)cc1-c1ccc(O[C@@H]2CCc3c(-c4cccc(C(F)(F)F)c4)cccc32)cc1` (stereo partly drawn) [Example 63, 5-(4-(((R)-4-(3-trifluoromethylphenyl)-2,3-dihydro-1H-inden-1-yl)oxy)phenyl)-3-hydroxyisothiazole 1-oxide], 300 to 3000 nM.

For the compound `[O-][s+]1nc(O)cc1-c1ccc(O[C@@H]2CCc3c(-c4ccccc4C(F)(F)F)cccc32)cc1` (stereo partly drawn) [Example 64, 5-(4-(((R)-4-(2-trifluoromethylphenyl)-2,3-dihydro-1H-inden-1-yl)oxy)phenyl)-3-hydroxyisothiazole 1-oxide], the EC50 was < 300 nM. For `[O-][s+]1nc(O)cc1-c1ccc(O[C@@H]2CCc3c(-c4ccccc4OC(F)(F)F)cccc32)cc1` (stereo partly drawn) [Example 65, 5-(4-(((R)-4-(2-trifluoromethoxyphenyl)-2,3-dihydro-1H-inden-1-yl)oxy)phenyl)-3-hydroxyisothiazole 1-oxide] the value was < 300 nM; for `[O-][s+]1nc(O)cc1-c1ccc(O[C@@H]2CCc3c(-c4cc(F)ccc4C(F)(F)F)cccc32)cc1` (stereo partly drawn) [Example 66, 5-(4-(((R)-4-(5-fluoro-2-trifluoromethylphenyl)-2,3-dihydro-1H-inden-1-yl)oxy)phenyl)-3-hydroxyisothiazole 1-oxide], < 300 nM. Consider `[O-][s+]1nc(O)cc1-c1ccc(O[C@@H]2CCc3c(-c4cc(C(F)(F)F)ccc4F)cccc32)cc1` (stereo partly drawn) [Example 67, 5-(4-(((R)-4-(2-fluoro-5-trifluoromethylphenyl)-2,3-dihydro-1H-inden-1-yl)oxy)phenyl)-3-hydroxyisothiazole 1-oxide], for which the 50% effective concentration (EC50) was < 300 nM.

With `[O-][s+]1nc(O)cc1-c1ccc(O[C@@H]2CCc3c(-c4cc(C(F)(F)F)ccc4Cl)cccc32)cc1` (stereo partly drawn) [Example 68, 5-(4-(((R)-4-(2-chloro-5-trifluoromethylphenyl)-2,3-dihydro-1H-inden-1-yl)oxy)phenyl)-3-hydroxyisothiazole 1-oxide], the EC50 fell in the range of 300 to 3000 nM. Regarding `[O-][s+]1nc(O)cc1-c1ccc(O[C@@H]2CCc3c(-c4ccc(Cl)cc4C(F)(F)F)cccc32)cc1` (stereo partly drawn) [Example 69, 5-(4-(((R)-4-(4-chloro-2-trifluoromethylphenyl)-2,3-dihydro-1H-inden-1-yl)oxy)phenyl)-3-hydroxyisothiazole 1-oxide], the EC50 fell in the range of 300 to 3000 nM.

As to `CS(=O)(=O)c1ccccc1-c1cccc2c1CC[C@H]2Oc1ccc(-c2cc(O)n[s+]2[O-])cc1` (stereo partly drawn) [Example 70, 5-(4-(((R)-4-(2-(methylsulfonyl)phenyl)-2,3-dihydro-1H-inden-1-yl)oxy)phenyl)-3-hydroxyisothiazole 1-oxide], the half-maximal effective concentration (EC50) is < 300 nM. Take `Cc1ccc(-c2cccc3c2CC[C@H]3Oc2ccc(-c3cc(O)n[s+]3[O-])cc2)cn1` (stereo partly drawn) [Example 71, 5-(4-(((R)-4-(6-methylpyridin-3-yl)-2,3-dihydro-1H-inden-1-yl)oxy)phenyl)-3-hydroxyisothiazole 1-oxide]: the EC50 was < 300 nM.

For the compound `Cc1cncc(-c2cccc3c2CC[C@H]3Oc2ccc(-c3cc(O)n[s+]3[O-])cc2)c1` (stereo partly drawn) [Example 72, 5-(4-(((R)-4-(5-methylpyridin-3-yl)-2,3-dihydro-1H-inden-1-yl)oxy)phenyl)-3-hydroxyisothiazole 1-oxide], the EC50 was < 300 nM. For `[O-][s+]1nc(O)cc1-c1ccc(O[C@@H]2CCc3c(-c4cncc(Cl)c4)cccc32)cc1` (stereo partly drawn) [Example 73, 5-(4-(((R)-4-(5-chloropyridin-3-yl)-2,3-dihydro-1H-inden-1-yl)oxy)phenyl)-3-hydroxyisothiazole 1-oxide] the value was < 300 nM; for `[O-][s+]1nc(O)cc1-c1ccc(O[C@@H]2CCc3c(-c4ccc(Cl)nc4)cccc32)cc1` (stereo partly drawn) [Example 74, 5-(4-(((R)-4-(6-chloropyridin-3-yl)-2,3-dihydro-1H-inden-1-yl)oxy)phenyl)-3-hydroxyisothiazole 1-oxide], < 300 nM; for `CC(C)c1ccc(-c2cccc3c2CC[C@H]3Oc2ccc(-c3cc(O)n[s+]3[O-])cc2)c(Cl)n1` (stereo partly drawn) [Example 76, 5-(4-(((R)-4-(6-isopropyl-2-chloropyridin-3-yl)-2,3-dihydro-1H-inden-1-yl)oxy)phenyl)-3-hydroxyisothiazole 1-oxide], < 300 nM.
